From patent publication US20080262228A1, “Metabolites of 5-fluoro-8- quinoline and methods of preparation and uses thereof” (Wyeth, priority 2006, published 2008)
Where a name gives a salt, the structure may show the parent alone.

Legend:
[1] = Metabolite profiling in liver microsomes and S9; format: in vitro ADME, rat, dog, monkey, human; conditions: liver microsomes and S9, 10 μM COMPOUND I, 30 min; species letters not defined
Description: Microsomal incubations for metabolite profiling were similar to those described above for intrinsic clearance determination (see Table 1). Aliquots of COMPOUND I (10 μL), dissolved in DMSO:methanol (1:9), were added to a 96-well plate containing phosphate buffer, and MgCl2 and the liver microsomes at 37° C. using the same automation apparatus as for the stability study described hereinabove. The reactions were initiated by the addition of the UDPGA and NADPH generating system. The final incubation volume for all samples was 1 mL and the length of incubation was 30 min. […] Three 250 μL aliquots were transferred to a 96-well plate containing 900 μL acetonitrile to precipitate the protein. […] The samples were then reconstituted in 150 μL of 20% methanol in water. The three aliquots for each sample were pooled and analyzed by LC/MS.
S9 incubation buffer and cofactors were chosen to allow N-acetylation and carbamoyl glucuronidation in addition to oxidative and glucuronidation pathways possible in liver microsomes. Incubations of sulfamethazine and SCA-136 with liver S9 were used as positive controls for N-acetylation and carbamoyl glucuronidation, respectively. Following a 30 min. incubation, 750 μL from each sample were added to 900 μL acetonitrile. Following centrifugation and evaporation of the supernatant, the samples were reconstituted in 450 μL of 20% methanol in water for analysis by HPLC/UV and LC/MS (see below).
The HPLC system used for mass spectrometric analysis was an Agilent 1100 HPLC (Agilent Technologies, Palo Alto, Calif.) equipped with a binary pump and a diode array UV detector. The UV detector was set to monitor 190-400 nm. Separations were accomplished on a Luna C18 column (150×2.1 mm, 5 μm) (Phenomenex Incorporated, Torrance, Calif.).
The mass spectrometer used for metabolite characterization was a Finnigan LCQ Deca ion trap mass spectrometer (Thermo Electron Corp.). […] Full scan and data dependent MS2 and MS3 mass spectra were recorded. Finnigan Xcalibur software (version 1.3) was used for control of equipment and recording of data from UV and LC/MS analyses.
Chromatographic profiles of COMPOUND I (10 μM) metabolites in incubations with liver microsomes in the presence of NADPH are presented in FIG. 1. Chromatographic profiles of COMPOUND I (10 μM) metabolites in incubations with liver microsomes in the presence of NADPH and UDPGA are presented in FIG. 2. Chromatographic profiles of COMPOUND I (10 μM) metabolites in incubations with liver S9 in the presence of NADPH, UDPGA and acetyl coenzyme A (CoA) are presented in FIG. 3. In incubations containing NADPH, UDPGA and acetyl CoA, fourteen Phase I metabolites (M1, M6, M8, M12, M13, M14, M15, M16, M17, M18, M20, M21, M22 and M23) and six Phase II metabolites (M2, M3, M5, M7, M9 and M10) were observed. In incubations without cofactors, no metabolites were observed.
LC/MS analysis was conducted on extracts of mouse, rat, monkey and human liver microsomes and S9. The mass spectral data for the characterized COMPOUND I metabolites are discussed below.

[2] = In vivo metabolism of [14C]COMPOUND I in Sprague-Dawley rats, single oral 5 mg/kg dose; parameters: species or system rat; conditions: for Chromatographic Distribution of Radioactivity in Pooled Plasma Samples: 5 mg/kg oral [14C]COMPOUND I
Description: Dose preparation, animal dosing, and specimen collection were performed at Wyeth Research, Collegeville, Pa. The vehicle contained 2% (w/v) polysorbate 80, NF and 0.5% (w/v) methylcellulose (4000 cps) in water. [^14C]COMPOUND I trisuccinate salt (36.6 mg) and non-labeled COMPOUND I trisuccinate salt (26.7 mg) were dissolved in 1 mL of ethanol and suspended in 35 mL of the vehicle with stirring. The target [^14C]COMPOUND I concentration was approximately 1 mg/mL as free base and 70 μCi/mL with a target specific activity of 70 μCi/mg. Three pre- and post-dose aliquots (100 μL) were taken for the determination of radiochemical purity, drug and radioactivity concentrations and specific activity (see below).
Male rats weighing from 323 to 354 g and female rats weighing from 270 to 317 g at the time of dosing were purchased from Charles River Laboratories (Wilmington, Mass.). Non-fasted rats were given a single 5 mg/kg (˜350 μCi/kg) dose of [^14C]COMPOUND I at a volume of 5.0 mL/kg via intragastric gavage. Three rats were dosed for each time point. Animals were provided Purina rat chow and water ad libitum, and were kept individually in metabolism cages.
Blood samples were collected at 1, 3, 6 and 24 hr from male rats and at 1 and 3 hr from female rats after dose administration by cardiac puncture into tubes containing EDTA as the anticoagulant and placing them on ice. Triplicate aliquots (50 μL) of whole blood were removed and plasma was immediately obtained from the remaining blood by centrifugation at 4° C. Whole brain samples were collected after saline perfusion at 1, 3, 6 and 24 hr post-dose from male rats and at 1 and 3 hr post-dose from female rats. Urine samples were collected on dry ice from male rats at intervals of 0-6 and 6-24 hr post-dose. Feces were collected from male rats at 0-24 hr post-dose at room temperature. The biological specimens and aliquots of the dose suspension were stored at approximately −70° C. until analysis.
Triplicate aliquots of diluted dose (20 μL), dose fractions (10 μL), and plasma (50 μL) and urine (100 μL) from individual rats were analyzed for radioactivity concentrations. Radioactivity determinations were made with a Tri-Carb Model 3100 TR liquid scintillation counter (LSC) (Perkin Elmer) using 5 mL of Ultima Gold as the scintillation fluid.
Brain and fecal samples from individual rats were weighed and homogenized in water at a volume-to-weight ratio of about 3:1 and 5:1, respectively, with a Polytron PT homogenizer at ice-cold temperature. Duplicate aliquots of blood (50 μL), brain homogenates (0.2 g) and fecal homogenates (0.2 g) were placed on Combusto-cones with Combusto-pads and allowed to dry overnight. Samples were combusted with a model 307 Tri-Carb Sample Oxidizer, equipped with an Oximate-80 Robotic Automatic Sampler (Perkin Elmer). The liberated ^14CO2 was trapped with Carbo-Sorb E carbon dioxide absorber, mixed with PermaFluor® E^+ liquid scintillation cocktail, and counted in a Tri-Carb Model 3100 TR/LL liquid scintillation counter (Perkin Elmer).
Plasma samples were pooled by equal volumes from three animals at each time point (1, 3, 6 and 24 hr for males; 1 and 3 hr for females). Aliquots of 2 mL of pooled plasma were mixed with 2 mL of acetonitrile, placed on ice for about 10 min, and then centrifuged at 4° C. The supernatant was transferred to a clean tube. The protein pellets were extracted two more times with 4 mL of acetonitrile. The supernatants from precipitation and extraction of each sample were pooled, mixed, and evaporated at 22° C. under nitrogen in a TurboVap LV evaporator (Caliper Life Sciences, Hopkinton, Mass.) to about 1.0 mL. The concentrated extract was centrifuged, the supernatant volume measured and the extraction efficiency was determined by analyzing duplicate 10 μL aliquots for radioactivity concentrations.

[3] = In vivo metabolism and excretion of [14C]COMPOUND I in male beagle dogs, single oral 3 mg/kg dose; parameters: species or system dog; conditions: 3 mg/kg oral
Description: Dose preparation, animal dosing, and specimen collection were performed at Wyeth Research, Collegeville, Pa. The vehicle contained 2% (w/v) polysorbate 80, NF and 0.5% (w/v) methylcellulose (4000 cps) in water. [^14C]COMPOUND I trisuccinate salt (50.25 mg) and non-labeled COMPOUND I trisuccinate salt (331.9 mg) were suspended in 72 mL of the vehicle by grinding with a mortar and a pestle. The target [^14C]COMPOUND I concentration was approximately 3 mg/mL as free base and 48 μCi/mL with a target specific activity of 16 μCi/mg. Three pre- and post-dose aliquots (100 μL) were taken for the determination of radiochemical purity, drug and radioactivity concentrations and specific activity (see below).
Four male beagle dogs, weighing from 9.4 to 11.5 kg at the time of dosing, were from an in-house colony. Non-fasted dogs were given a single 3 mg/kg (approximately 48 μCi/kg) dose of [^14C]COMPOUND I at a volume of 1 mL/kg via intragastric gavage. Animals were provided Purina dog chow and water ad libitum, and were housed individually in metabolic cages.
Blood samples were collected from the jugular vein at 1, 4, 8, 24, 48, 72 and 120 hr after dose administration into tubes containing potassium EDTA as the anticoagulant and then placed on ice. Aliquots of 200 μL were removed and plasma was harvested immediately from the remaining blood by centrifugation at 4° C. Urine samples were collected into tubes on dry ice from 0-24 and 24-48 hr, and then at ambient temperature at 24 hr intervals for 7 days post-dose. Fecal samples were collected at 24 hr intervals for 7 days post-dose at room temperature. Cage rinses were collected daily by rinsing each cage with approximately 500 mL of 30% ethanol in water. The dose aliquots and biological specimens were stored at approximately −70° C. until analysis.
Triplicate aliquots of diluted dose (20 μL), dose fractions (10 μL) and plasma (50 μL), urine (200 μL) and cage wash (500 μL) from individual dogs were analyzed for radioactivity content. The samples were assayed in a Tri-Carb Model 3100TR liquid scintillation counter (Perkin Elmer) using 5 mL of Ultima Gold scintillation cocktail.
Fecal samples from individual dogs were weighed and homogenized in water at a volume-to-weight ratio of about 4:1 with a Silverson sealed-unit homogenizer at ambient temperature. Triplicate aliquots of whole blood (50 μL) and fecal homogenates (approximately 0.2 g) were placed into Combusto-cones with Combusto-pads and allowed to dry overnight. Samples were combusted with a model 307 Tri-Carb Sample Oxidizer, equipped with an Oximate-80 Robotic Automatic Sampler (Perkin Elmer). The liberated ^14CO2 was trapped with Carbo-Sorb® E carbon dioxide absorber, mixed with PermaFluor® E+liquid scintillation cocktail, and counted in a Tri-Carb Model 3100 TR/LL liquid scintillation counter.
Plasma samples were pooled by mixing equal volumes from four animals at each time point (1, 4, 8 and 24 hr). Aliquots of 2.0 mL of pooled plasma were mixed with 2.0 mL of acetonitrile, placed on ice for about 10 min, and then centrifuged at 4° C. The supernatant was transferred to a clean tube. The protein pellets were extracted two more times with 2.0 mL of acetonitrile. The supernatants from precipitation and extraction of each sample were pooled, mixed, and evaporated at 22° C. under nitrogen in a TurboVap LV evaporator (Caliper Life Sciences, Hopkinton, Mass.) to about 0.8 mL. The concentrated extract was centrifuged, the supernatant volume measured and the extraction efficiency was determined by analyzing duplicate 10 μL aliquots for radioactivity concentrations. For metabolite profiling, an aliquot of the supernatant (200 μL) was injected onto the HPLC column as described hereinbelow, and fractions were collected at 20 second intervals into 96-well Lumaplates (Perkin Elmer).

[4] = Turnover to metabolites in cryopreserved hepatocytes; conditions: 100 μM, 1 hr
Description: Chromatographic analyses were performed with a Waters Alliance model 2695 HPLC system (Waters Corp., Milford, Mass.) that was equipped with a built-in autosampler. The column eluent was monitored with a model 996 diode array UV detector, set to monitor 250 nm, and a FloOne β Model A525 radioactivity flow detector (Perkin Elmer) with a 250 μL flow cell. Separation of the parent compound from metabolites was accomplished using a Discovery C18 column, 250×4.6 mm, 5 μm (Supelco, Bellefonte, Pa.) at an ambient temperature of approximately 20° C. Mobile phase A was 10 mM ammonium acetate (pH 4.5) and mobile phase B was acetonitrile and they were delivered at 1 mL/min using the gradient described in Table 10. The Ultima Flo M scintillant flow rate was 3 mL/min.
Flo-One analytical software (version 3.65) was utilized to integrate the radioactive peaks. Means and standard deviations were calculated using Microsoft Excel® 2000. Micromass MassLynx software (version 4.0, Waters Corp.) was used for control of LC/MS equipment and recording of data from LC/MS analyses.

## COC1=CC(=O)c2ncccc2C1=O [Metabolite M1, 6-Methoxy-quinoline-5,8-dione]
[1]
  Species (in which the metabolite was characterized): R, D, M, H

## O=C(O)C1OC(Oc2cc(N3CCN(C4CCN(c5ccc(F)c6cccnc56)CC4)CC3)c3ncccc3c2)C(O)C(O)C1O (stereo not shown) [Metabolite M11, O-Desmethyl COMPOUND I glucuronide]
[2]; female rats, 1 hr
  Chromatographic Distribution of Radioactivity in Pooled Plasma Samples: 56.8%
[2]; female rats, 3 hr
  Chromatographic Distribution of Radioactivity in Pooled Plasma Samples: 48.2%
[2]; male and female rats, range over time points, 5 mg/kg oral
  percent of total plasma radioactivity: 41.3-56.8%
[2]; male rats, 1 hr
  Chromatographic Distribution of Radioactivity in Pooled Plasma Samples: 52.9%
[2]; male rats, 3 hr
  Chromatographic Distribution of Radioactivity in Pooled Plasma Samples: 43.1%
[2]; male rats, 6 hr
  Chromatographic Distribution of Radioactivity in Pooled Plasma Samples: 41.3%

## COc1cc(N2CCN(C3CCN(C4=CC(=O)C(=O)c5cccnc54)CC3)CC2)c2ncccc2c1 [Metabolite M16, Desfluoro COMPOUND I quinone]
[1]
  Species (in which the metabolite was characterized): R, M, H

## O=C1C=C(N2CCN(C3CCN(c4ccc(F)c5cccnc45)CC3)CC2)c2ncccc2C1=O [Metabolite M23, Desmethyl COMPOUND I quinone]
[1]
  Species (in which the metabolite was characterized): R, D, M, H

## O=S(=O)(O)Oc1cc(N2CCN(C3CCN(c4ccc(F)c5cccnc45)CC3)CC2)c2ncccc2c1 [Metabolite M24, O-Desmethyl COMPOUND I sulfate]
[3]; P, plasma, F, feces
  Source: P, F
[3]; pooled 0-24 hr fecal sample
  percent of total fecal radioactivity: 4.6%
[3]; pooled 24-48 hr fecal sample
  percent of total fecal radioactivity: 19.3%

## Methoxyquinolinyl-piperazine [Metabolite P1]
[1]
  Species (in which the metabolite was characterized): R, D, M, H

## [^14C]7-Ethoxycoumarin [reference compound]
[4]; dog hepatocytes
  turnover (positive control): 9%
[4]; human hepatocytes
  turnover (positive control): 6%
[4]; rat hepatocytes
  turnover (positive control): 10%
